Reference: ChEMBL document CHEMBL2169871, “SIRT1 modulation as a novel approach to the treatment of diseases of aging” (J Med Chem, 2011)

Experiments:
[1] = biological target: T1, NAD-dependent protein deacetylase sirtuin-1 (Homo sapiens) (UniProt Q96EB6); experiment: Activation of SIRT1 relative to control
T1 sequence (whole entry): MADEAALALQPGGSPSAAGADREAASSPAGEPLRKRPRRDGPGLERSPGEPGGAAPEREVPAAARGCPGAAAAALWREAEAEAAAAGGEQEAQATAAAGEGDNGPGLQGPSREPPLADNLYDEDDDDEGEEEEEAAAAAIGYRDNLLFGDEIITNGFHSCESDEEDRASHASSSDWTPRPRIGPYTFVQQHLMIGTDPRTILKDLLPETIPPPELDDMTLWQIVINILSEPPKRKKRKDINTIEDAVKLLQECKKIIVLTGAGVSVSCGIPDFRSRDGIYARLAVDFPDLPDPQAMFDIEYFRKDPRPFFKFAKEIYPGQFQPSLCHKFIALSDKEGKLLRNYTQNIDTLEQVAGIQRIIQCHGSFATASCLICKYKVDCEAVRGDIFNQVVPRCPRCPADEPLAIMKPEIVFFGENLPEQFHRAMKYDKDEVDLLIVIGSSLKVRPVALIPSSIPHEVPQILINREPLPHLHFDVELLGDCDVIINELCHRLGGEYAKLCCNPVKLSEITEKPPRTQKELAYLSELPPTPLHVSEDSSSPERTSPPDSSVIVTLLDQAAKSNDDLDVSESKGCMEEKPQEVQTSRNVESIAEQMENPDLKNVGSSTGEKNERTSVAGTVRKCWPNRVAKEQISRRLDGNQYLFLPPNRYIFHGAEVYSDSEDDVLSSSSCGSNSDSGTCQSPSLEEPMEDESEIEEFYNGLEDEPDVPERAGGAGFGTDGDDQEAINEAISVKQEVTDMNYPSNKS

[2] = biological target: T2, NAD-dependent protein deacetylase sirtuin-1 (Homo sapiens, UniProt Q96EB6); experiment: Activation of SIRT1
T2 sequence (Q96EB6 whole entry): T1 sequence (whole entry)

[3] = biological target: T3, NAD-dependent protein deacetylase sirtuin-3, mitochondrial (Homo sapiens, UniProt Q9NTG7); experiment: Inhibition of SIRT3
T3 sequence (Q9NTG7 whole entry): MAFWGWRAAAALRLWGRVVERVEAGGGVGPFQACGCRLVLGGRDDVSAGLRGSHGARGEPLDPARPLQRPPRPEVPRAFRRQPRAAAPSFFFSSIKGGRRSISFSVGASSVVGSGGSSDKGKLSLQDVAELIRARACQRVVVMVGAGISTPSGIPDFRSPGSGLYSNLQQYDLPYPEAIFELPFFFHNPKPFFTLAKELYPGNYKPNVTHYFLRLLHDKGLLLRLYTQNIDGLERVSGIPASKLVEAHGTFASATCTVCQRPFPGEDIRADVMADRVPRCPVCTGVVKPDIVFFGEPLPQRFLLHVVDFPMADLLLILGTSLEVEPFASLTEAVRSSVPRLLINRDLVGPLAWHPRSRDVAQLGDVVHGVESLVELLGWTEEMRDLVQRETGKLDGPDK

[4] = biological target: T2, NAD-dependent protein deacetylase sirtuin-1; experiment: Inhibition of SIRT1
[5] = biological target: T4, NAD-dependent protein deacetylase sirtuin-2 (Homo sapiens, UniProt Q8IXJ6); experiment: Inhibition of SIRT2
T4 sequence (Q8IXJ6 whole entry): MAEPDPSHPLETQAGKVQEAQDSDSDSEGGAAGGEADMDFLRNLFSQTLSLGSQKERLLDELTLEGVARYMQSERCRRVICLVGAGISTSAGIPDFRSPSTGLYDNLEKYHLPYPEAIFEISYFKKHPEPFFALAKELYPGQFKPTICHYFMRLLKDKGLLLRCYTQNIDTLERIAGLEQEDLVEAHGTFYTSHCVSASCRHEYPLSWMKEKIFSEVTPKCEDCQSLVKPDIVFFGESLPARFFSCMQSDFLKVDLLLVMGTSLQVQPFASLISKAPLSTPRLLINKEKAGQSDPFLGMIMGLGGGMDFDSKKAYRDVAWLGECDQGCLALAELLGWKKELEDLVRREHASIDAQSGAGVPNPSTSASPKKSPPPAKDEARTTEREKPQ

[6] = Half life in mouse; format: ADME, organism-based; conditions: in vivo
Mus musculus [7] = experiment: Increase of SIRT1 mRNA expression in mouse brain at 12.5 mg/kg qd for 7 days by RT-PCR analysis; format: functional
Mus musculus [8] = experiment: Increase of SIRT1 mRNA expression in mouse brain at 25 mg/kg qd for 7 days by RT-PCR analysis; format: functional
Mus musculus [9] = experiment: Increase of SIRT1 mRNA expression in mouse soleus muscle at 12.5 to 25 mg/kg qd for 7 days by RT-PCR analysis; format: functional; conditions: dose mg/kg 12.5-25

Row | SMILES | Emax [1] | EC50 [2] | IC50 [4] | other results
1 | COc1ccc(C(=O)Nc2cccc(-c3nc4ncccc4o3)c2)cc1OC | 240% | 6 µM |  | 
2 | CC(=S)NCCCC[C@H](NC(=O)OCc1ccccc1)C(=O)Nc1ccccc1 |  |  |  | IC50 [3]: > 100 µM
3 | O=C1c2cccc3cccc(c23)C(=O)N1CCNCCCNCCCNCCN1C(=O)c2cccc3cccc(c23)C1=O |  |  | 43 µM | 
4 | COc1ccc(C(=O)Nc2ccccc2-c2nc3ncccc3o2)cc1OC | 170% | 0.9 µM |  | 
5 | CCOC(=O)CC(=O)NCCCC[C@H](NC(=O)OCc1ccccc1)C(=O)Nc1ccccc1 |  |  | 4 µM | IC50 [5]: 65 µM; IC50 [3]: > 300 µM
6 | O=C1NC(=S)NC(=O)C1=Cc1cc2ccccc2[nH]1 |  |  | 6 µM | IC50 [5]: 20 µM
7 | O=C(Nc1ccc(CN2CCNCC2)cc1-c1nc2ccccc2[nH]1)c1cnc2ccccc2n1 | 820% | 0.4 µM |  | 
8 | CN(C)c1cccc(C(=O)Nc2ccccc2-c2nc3ncccc3o2)c1 | 209% | 4.4 µM |  | 
9 | O=c1[nH]c(=S)[nH]c(-c2ccc(Br)cc2)c1Cc1c(O)ccc2ccccc12 |  |  | 13 µM | 
10 | O=C1NC(=S)NC(=O)C1=Cc1cccc2ccccc12 |  |  | 13 µM | IC50 [5]: 9 µM
11 | NC(=O)c1ccccc1Nc1ccccc1 [ANILINOBENZAMIDE] |  |  | 17 µM | 
12 | O=C1Nc2c(ccc(Cl)c2Cl)/C1=C/c1cc(Br)c(O)c(Br)c1 |  |  | 40 µM | IC50 [5]: 28 µM
13 | O=C(Nc1ccccc1-c1nc2cccnc2s1)c1cc(NC[C@@H](O)CO)nc(-c2ccccc2)n1 |  | < 0.25 µM |  | 
14 | Cc1ccc2[nH]c(=O)c(C=C3C(=O)NC(=S)NC3=O)cc2c1 |  |  | 13 µM | IC50 [5]: 11 µM
15 | CN(C)c1cccc(C(=O)Nc2cccc(-c3nc4ncccc4o3)c2)c1 | 207% | 25 µM |  | 
16 | NC(=O)C1CCCc2c1[nH]c1ccc(Cl)cc21 (configuration not stated) |  |  |  | half-life [6]: 3.23 h
17 | Cc1ccc(C(=O)Nc2ccc(S(=O)(=O)O)c3cc(S(=O)(=O)O)cc(S(=O)(=O)O)c23)cc1NC(=O)c1cccc(NC(=O)Nc2cccc(C(=O)Nc3cc(C(=O)Nc4ccc(S(=O)(=O)O)c5cc(S(=O)(=O)O)cc(S(=O)(=O)O)c45)ccc3C)c2)c1 [SURAMIN HEXASODIUM] |  |  |  | IC50 [5]: 1.2 µM
18 | O=C(Nc1nccs1)c1cccc2[nH]c(-c3cccc(C(F)(F)F)c3)nc12 | > 200% | < 1 µM |  | 
19 | O=C(Nc1ccccc1-c1nc2cccnc2s1)c1cc(N2CCNCC2)nc(-c2ccccc2)n1 |  | < 0.25 µM |  | 
20 | O=C(Nc1ccccc1-c1nc2ccccc2[nH]1)c1cnc2ccccc2n1 | 253% | 0.3 µM |  | 
21 | O=C(Nc1ccccc1-c1nc2cccnc2s1)c1cc(N2CCOCC2)nc(-c2ccccc2)n1 |  | < 0.25 µM |  | 
22 | O=c1c(O)c(-c2ccc(O)c(O)c2)oc2cc(O)cc(O)c12 [QUERCETIN] |  |  |  | Activity (Mus musculus [7]): 50%; Activity (Mus musculus [8]): 100%; Activity (Mus musculus [9]): 200%
